Target: T1, KRAS^G12D protein (Homo sapiens, UniProt P01116, G12D)
T1 construct: host or cells: Aspc-1 (AsPC-1) cells
Experiment: Protein degradation study (western blot) in Aspc-1 cells
Format: cell-based
Settings: for inhibition at 0.001 µM / inhibition at 0.005 µM / inhibition at 0.05 µM / inhibition at 1 µM / inhibition at 0.1 µM: ASPC1, 24 h, 24 hours; for inhibition at 0.001 µM: Aspc-1 cells treated with 1 nM compound; for inhibition at 0.001 µM / inhibition at 0.005 µM / inhibition at 0.05 µM: read-out: Rate of degradation; for inhibition at 0.005 µM: Aspc-1 cells treated with 0.005 μM compound; for inhibition at 0.05 µM: Aspc-1 cells treated with 50 nM compound; for DC50: Aspc-1 cells, half-maximum degradation concentration, read-out: DC50 of compounds induced Ras G12D protein degradation; for inhibition at 1 µM: Aspc-1 cells treated with 1 μM compound; for inhibition at 1 µM / inhibition at 0.1 µM: read-out: Rate of protein degradation; for inhibition at 0.1 µM: Aspc-1 cells treated with 0.1 μM compound
Protocol: Aspc-1 (Cobioer, CBP60546) cells in exponential growth phase were inoculated on a 6-well cell culture plate (Corning, 3516) at density of 1E6/well; and cells in the plate were cultured in 37° C. incubator containing 5%-carbon dioxide. The next day, testing compounds were dissolved in DMSO (Sigma, RNBF5902) for the preparation of a 10-mM concentration stock solution. The stock solution was diluted with complete medium (RPMI-1640 supplemented with 10% fetal bovine serum, 1% penicillin-streptomycin), yielding working solutions of various concentrations. The plate, after the addition of compounds, was placed in a 5% carbon dioxide incubator, and incubated at 37° C. for 24 hours (final DMSO concentration was 0.1%). The plate was then removed from the incubator, and the cells were washed twice with precooled PBS (Gibco, 14190250), followed by addition of 80-μL RIPA lysis buffer (containing protease inhibitor (Invitrogen™, AM2696)) to each well. The adherent cells were scraped off with a cell scraper, and the cell lysate was transferred to a 1.5-mL centrifuge tube followed with a 30-minute incubation on ice. The lysate was then clarified with centrifugation at 14000 rpm for 10 min at 4° C. The supernatant was transferred into a new 1.5-mL centrifuge tube, and protein concentration was measured with BCA protein detection kit (Thermo Fisher, 23225). G12D protein level was assessed by western blot.
A mixture of cell lysate (40 μL) and loading buffer (10 μL, 5×SDS (Beyotime, P0015L)) was denatured in a water-bath at 95° C. for 10 min. The denatured protein sample, at 30 μL/well, was loaded into corresponding well of 4-20% Bis-Tris gel (Kingsley, M00656). Protein samples were initially electrophoresed at 80 V for 30 minutes, followed by 120 V for 40 minutes, until the bromophenol blue strip ran to an appropriate position. After electrophoresis, iBlot2 (Life Technologies, IB21001) was used to transfer the separated samples onto PVDF film. The PVDF membrane was washed with double-distilled water and then blocked in TBST (Thermo Scientific, 28360) buffer containing 5% non-fat milk, for 2 hours. Blocked membrane was rinsed with tris-buffered saline tween-20 (Thermo Scientific, 28360, TBST) three times, 10 minutes each. Membrane was then incubated with 1:1000 diluted KRAS primary antibody (CST, cat #14429S) overnight at 4° C. Membrane was rinsed in a way described previously followed by 1 hour incubation of secondary antibody at room temperature. After washing the film for three times with TBST, ECL color developing solution was applied, and image was captured with Biorad Chemi Doc gel imager. The band gray value was quantified (Image Lab), and protein degradation level was calculated according to the following formula:
Level of RAS protein expression=(RAS-compound/GAPDH)/(RAS-DMSO/GAPDH)
Level of degradation (%)=(1−Rate of RAS protein expression)×100
Symbols of −, +, ++, +++ indicate that the degradation level of Ras protein induced by testing compounds are […], 11 to 30%, 31 to 60% and greater than 60%, respectively.
Half-maximum degradation concentrations (DC50s) of testing compounds were calculated using GraphPad Prism and their values were shown in Table 6. Symbols of […] represent DC50s equal or less than 10 nM, 11-50 nM, 51-100 nM, and 101-200 nM, respectively.

T1 sequence (P01116 1-188 isoform P01116-2 G12D): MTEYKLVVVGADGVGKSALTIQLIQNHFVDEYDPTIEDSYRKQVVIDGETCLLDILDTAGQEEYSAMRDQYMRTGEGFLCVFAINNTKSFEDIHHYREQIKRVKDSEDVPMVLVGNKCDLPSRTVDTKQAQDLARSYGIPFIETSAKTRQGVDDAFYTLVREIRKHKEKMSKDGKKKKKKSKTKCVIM

SMILES: C#Cc1c(F)ccc2cc(O)cc(-c3ncc4c(N5CC6CCC(C5)N6)nc(OCC5(CN6CCC(CN7CCC(c8cccc(N9CC(=O)NC9=O)c8)CC7)CC6)CC5)nc4c3F)c12 [Compound 7a]
- inhibition at 0.001 µM: 11 to 30%

SMILES: C#Cc1c(F)ccc2cc(O)cc(-c3ncc4c(N5CC6CCC(C5)N6)nc(OCC5(CN6CCC(CN7CCC(c8cccc(N9CCC(=O)NC9=O)c8C)CC7)CC6)CC5)nc4c3F)c12 [Compound 8a]
- inhibition at 0.001 µM: 11 to 30%

SMILES: Cc1ccc2[nH]ncc2c1-c1ncc2c(N3CC4CCC(C3)N4)nc(OCC3(CN4CCC5(CC4)CC(N4CCC(c6ccc7c8c(cccc68)C(=O)N7C6CCC(=O)NC6=O)CC4)C5)CC3)nc2c1F (stereo not drawn) [Compound 18a]
- inhibition at 0.005 µM: 11 to 30%

SMILES: Nc1cc(Cl)c(C(F)(F)F)c(-c2ncc3c(N4CC5CCC(C4)N5)nc(OCC4(CN5CCC6(CC5)CC(N5CCC(c7cccc(N8CCC(=O)NC8=O)c7)CC5)C6)CC4)nc3c2F)c1 [Compound 19a]
- inhibition at 0.005 µM: 11 to 30%
- inhibition at 0.05 µM: 11 to 30%

SMILES: C#Cc1c(F)ccc2cccc(-c3ncc4c(N5CC6CCC(C5)N6)nc(OCC5(CN6CCC7(CC6)CC(N6CCC(c8ccc(NC9CCC(=O)NC9=O)cc8F)CC6)C7)CC5)nc4c3F)c12 (stereo not drawn) [Compound 22a]
- inhibition at 0.005 µM: 11 to 30%
- inhibition at 0.05 µM: 31 to 60%

SMILES: C#Cc1c(F)ccc2cc(O)cc(-c3ncc4c(N5CC6CCC(C5)N6)nc(OCC5(CN6CC7(CC(CN8CCC(c9ccc%10c(C%11CCC(=O)NC%11=O)nn(C)c%10c9)CC8)C7)C6)CC5)nc4c3F)c12 (stereo not drawn) [Compound 25a]
- inhibition at 0.005 µM: 31 to 60%
- inhibition at 0.05 µM: 31 to 60%

SMILES: C#Cc1c(F)ccc2cc(O)cc(-c3ncc4c(N5CC6CCC(C5)N6)nc(OCC5(CN6CC7(CC(C(=O)N8CCC(c9ccc%10c(C%11CCC(=O)NC%11=O)nn(C)c%10c9)CC8)C7)C6)CC5)nc4c3F)c12 (stereo not drawn) [Compound 27a]
- inhibition at 0.005 µM: 11 to 30%
- inhibition at 0.05 µM: 11 to 30%

SMILES: C#Cc1c(F)ccc2cc(O)cc(-c3ncc4c(N5CC6CCC(C5)N6)nc(OCCCN5CCN(C(=O)CN6CCC(c7ccc8c(C9CCC(=O)NC9=O)nn(C)c8c7)CC6)CC5)nc4c3F)c12 (stereo not drawn) [Compound 33]
- DC50: 11 to 50 nM

SMILES: C#Cc1c(F)ccc2cc(O)cc(-c3ncc4c(N5CC6CCC(C5)N6)nc(OCC5(CN6CCC(N7CC(N8CCC(c9ccc%10c(C%11CCC(=O)NC%11=O)nn(C)c%10c9)CC8)C7)CC6)CC5)nc4c3F)c12 (stereo not drawn) [Compound 34a]
- inhibition at 0.005 µM: 31 to 60%
- inhibition at 0.05 µM: > 60%

SMILES: C#Cc1c(F)ccc2cc(O)cc(-c3ncc4c(N5CC6CCC(C5)N6)nc(OCC5(CN6CCC(N7CC(C(=O)N8CCC(c9ccc%10c(C%11CCC(=O)NC%11=O)nn(C)c%10c9)CC8)C7)CC6)CC5)nc4c3F)c12 (stereo not drawn) [Compound 35a]
- inhibition at 0.005 µM: 31 to 60%
- inhibition at 0.05 µM: > 60%

SMILES: C#Cc1c(F)ccc2cc(O)cc(-c3ncc4c(N5CC6CCC(C5)N6)nc(OCC5(CN6CCC7(CC6)CC(N6CCC(c8ccc(NC9%10CC(C9)C(=O)NC%10=O)cc8F)CC6)C7)CC5)nc4c3F)c12 [Compound 36a]
- inhibition at 0.005 µM: > 60%
- inhibition at 0.05 µM: > 60%
- DC50: < 10 nM

SMILES: C#Cc1c(F)ccc2cc(O)cc(-c3ncc4c(N5CC6CCC(C5)N6)nc(OCC5(CN6CCC7(CC6)CC(N6CCC(c8ccc(CN9CCC(=O)NC9=O)cc8)CC6)C7)CC5)nc4c3F)c12 [Compound 38a]
- inhibition at 0.005 µM: 11 to 30%

SMILES: C#Cc1c(F)ccc2cc(O)cc(-c3ncc4c(N5CC6CCC(C5)N6)nc(OCC5(CN6CCC7(CC6)CC(c6cc8c(cc6F)c(N6CCC(=O)NC6=O)nn8C)C7)CC5)nc4c3F)c12 [Compound 39a]
- inhibition at 0.005 µM: > 60%
- DC50: < 10 nM

SMILES: C#Cc1c(F)ccc2cc(O)cc(-c3ncc4c(N5CC6CCC(C5)N6)nc(OCC5(CN6CCC7(CC6)CC(N6CCC(c8cc9c(cc8F)c(C8CCC(=O)NC8=O)nn9C)CC6)C7)CC5)nc4c3F)c12 (stereo not drawn) [Compound 41a]
- inhibition at 0.005 µM: > 60%
- inhibition at 0.05 µM: > 60%

SMILES: C#Cc1c(F)ccc2cc(O)cc(-c3ncc4c(N5CC6CCC(C5)N6)nc(OC5CCN(CCCCCCCCCCC(=O)N[C@H](C(=O)N6C[C@H](O)C[C@H]6C(=O)NCc6ccc(-c7scnc7C)cc6)C(C)(C)C)CC5)nc4c3F)c12 [Compound 43]
- DC50: 51 to 100 nM

SMILES: C#Cc1c(F)ccc2cc(O)cc(-c3ncc4c(N5CC6CCC(C5)N6)nc(OC5CCN(CCCCCCCCCCC(=O)N[C@H](C(=O)N6C[C@H](O)C[C@H]6C(=O)N[C@@H](C)c6ccc(-c7scnc7C)cc6)C(C)(C)C)CC5)nc4c3F)c12 [Compound 45]
- DC50: 11 to 50 nM

SMILES: C#Cc1c(F)ccc2cc(O)cc(-c3ncc4c(N5CC6CCC(C5)N6)nc(OC5CCN(CCCCCCCCCCC(=O)N[C@H](C(=O)N6C[C@H](O)C[C@H]6C(=O)N[C@@H](C)c6ccc(-c7scnc7C)cc6)C(C)(C)C)C5)nc4c3F)c12 (stereo partly drawn) [Compound 55]
- DC50: 51 to 100 nM

SMILES: C#Cc1c(F)ccc2cc(O)cc(-c3ncc4c(N5CC6CCC(C5)N6)nc(OCC5CCN(CCCCCCCCCCC(=O)N[C@H](C(=O)N6C[C@H](O)C[C@H]6C(=O)N[C@@H](C)c6ccc(-c7scnc7C)cc6)C(C)(C)C)C5)nc4c3F)c12 (stereo partly drawn) [Compound 56]
- DC50: 11 to 50 nM

SMILES: C#Cc1c(F)ccc2cc(O)cc(-c3ncc4c(N5CC6CCC(C5)N6)nc(OCC5CCN(CCCCCCCCCCC(=O)N6CCC(c7ccc8c(C9CCC(=O)NC9=O)nn(C)c8c7)CC6)C5)nc4c3F)c12 (stereo not drawn) [Compound 57]
- DC50: < 10 nM

SMILES: C#Cc1c(F)ccc2cc(O)cc(-c3ncc4c(N5CC6CCC(C5)N6)nc(OCCCN5CCC(C(=O)N6CCN(C(=O)C[C@H](NC(=O)[C@@H]7C[C@@H](O)CN7C(=O)[C@@H](NC(=O)C7(F)CC7)C(C)(C)C)c7ccc(-c8scnc8C)cc7)CC6)CC5)nc4c3F)c12 [Compound 65]
- inhibition at 1 µM: 11 to 30%

SMILES: C#Cc1c(F)ccc2cc(O)cc(-c3ncc4c(N5CC6CCC(C5)N6)nc(OC5CCN(CC(=O)N6CCC(c7ccc8c(C9CCC(=O)NC9=O)nn(C)c8c7)CC6)CC5)nc4c3F)c12 (stereo not drawn) [Compound 69]
- inhibition at 0.1 µM: > 60%
- inhibition at 1 µM: > 60%

SMILES: C#Cc1c(F)ccc2cc(O)cc(-c3ncc4c(N5CC6CCC(C5)N6)nc(OC5CCN(CC6CCN(C(=O)C[C@H](NC(=O)[C@@H]7C[C@@H](O)CN7C(=O)[C@@H](NC(=O)C7(F)CC7)C(C)(C)C)c7ccc(-c8scnc8C)cc7)CC6)CC5)nc4c3F)c12 [Compound 70]
- inhibition at 0.1 µM: 11 to 30%
- inhibition at 1 µM: > 60%

SMILES: C#Cc1c(F)ccc2cc(O)cc(-c3ncc4c(N5CC6CCC(C5)N6)nc(OCCCN5CCN(CCC(=O)N6CCC(c7ccc8c(C9CCC(=O)NC9=O)nn(C)c8c7)CC6)CC5)nc4c3F)c12 (stereo not drawn) [Compound 74]
- inhibition at 0.1 µM: 31 to 60%

SMILES: C#Cc1c(F)ccc2cc(O)cc(-c3ncc4c(N5CC6CCC(C5)N6)nc(OCC5(CN6CCC(c7ccc8c(C9CCC(=O)NC9=O)nn(C)c8c7)CC6)CC5)nc4c3F)c12 (stereo not drawn) [Compound 99]
- inhibition at 0.1 µM: > 60%

SMILES: C#Cc1c(F)ccc2cc(O)cc(-c3ncc4c(N5CC6CCC(C5)N6)nc(OCC5(CN6CCC(C(=O)N7CCC(c8ccc9c(C%10CCC(=O)NC%10=O)nn(C)c9c8)CC7)CC6)CC5)nc4c3F)c12 (stereo not drawn) [Compound 100]
- inhibition at 0.1 µM: > 60%

SMILES: C#Cc1c(F)ccc2cc(O)cc(-c3ncc4c(N5CC6CCC(C5)N6)nc(OC5CCN(CC(=O)N6CCC7(CC6)CC(N6CCC(c8ccc9c(C%10CCC(=O)NC%10=O)nn(C)c9c8)CC6)C7)C5)nc4c3F)c12 (stereo not drawn) [Compound 101]
- inhibition at 0.1 µM: 11 to 30%

SMILES: C#Cc1c(F)ccc2cc(O)cc(-c3ncc4c(N5CC6CCC(C5)N6)nc(N5CC(N6CCN(C(=O)CN7CCC(c8ccc9c(C%10CCC(=O)NC%10=O)nn(C)c9c8)CC7)CC6)C5)nc4c3F)c12 (stereo not drawn) [Compound 120]
- inhibition at 0.1 µM: 11 to 30%
